Results published in US11779014B2, “Adjuvants” (SYNGENTA PARTICIPATIONS AG, priority 2017, dated 2023).

What was measured:
[1] = De-gelling temperature of aqueous surfactant blends by low shear rheology (Bohlin Gemini rheometer, storage modulus vs temperature); assay type: physicochemical
Experimental: The temperatures at which blends of capped and uncapped surfactants de-gel were determined by standard low shear rheology with a Bohlin™ Gemini rheometer. The storage modulus (G′) at 1 Hz was determined at a strain of 0.001-0.002 in a standard C14 cup and bob geometry over a temperature range of 5-70° C., the exact range depending on the de-gelling point of the sample. Plots of storage modulus versus temperature were constructed and the de-gelling temperature was taken to be the point at which the modulus begins to fall rapidly from its high value in the gelled state (typically ca. 10^5 Pa) down to the final value in the de-gelled state (less than 10 Pa). Blends of surfactants were prepared at from 25 to 40% w/w total surfactant concentration in water. Samples were left in an oven at 55° C. for several days to ensure that the mixtures were homogeneous. Samples were placed in the C14 cup and the samples were de-gelled by raising the temperature in the rheometer, the bob was then inserted and the sample was then cooled at 1° C./min, whilst the storage modulus was regularly recorded during the cooling. Once the final temperature had been reached (i.e. when the sample had gelled), the temperature was then increased again and the modulus again recorded. The de-gelling temperature was determined from the increasing temperature cycle.
Degelling temperatures—the measurements relied on the same method as for ‘Example 1’ but just at 30% w/w total surfactant concentration.
De-gelling temperatures were measured using the same method as in Example 1.
(§1) This example provides de-gelling, cloud point and adjuvancy data for dodecyl 23 ethoxylate with n-hexyl cap and hexadecyl 20 ethoxylate with n-hexyl cap Cloud points were measured as described in example 1 for 1% aqueous solutions of the capped and uncapped surfactants both individually and as blends (see Table 30). Degelling temperatures were also measured as outlined in example 1 for 25, 30, 35 and 40% aqueous solutions of the capped and uncapped surfactants both individually and as blends (see Table 31).
(§2) This example provides de-gelling, cloud point and adjuvancy data for oleyl 20 ethoxylate with n-butyl, n-pentyl or benzyl ether caps end capped oleyl 20 ethoxylate. Cloud points were measured as described in example 1 for 1% aqueous solutions of the capped and uncapped surfactants both individually and as blends. Degelling temperatures were also measured as outlined in example 1 for 25, 30, 35 and 40% aqueous solutions o of the capped and uncapped surfactants both individually and as blends.

[2] = Cloud point measurement (absorbance at 500 nm as a function of temperature); assay type: physicochemical
Experimental: Consistent with the standard method for measuring the cloud point of surfactants, the cloud point of each of the above blends was measured at a total concentration of 1% w/w in water using a Perkin Elmer spectrophotometer fitted with a PTP6 temperature controller. The absorbance of the solution at 500 nm wavelength was determined as a function of temperature. The cloud point was recorded as the onset of a rapid increase in absorbance as the solution began to cloud.
Cloud point—the measurements relied on the same method as for ‘Example 1’
Cloud points—were measured using the same method as in Example 1.
as §1, §2

[3] = tested on: Avena fatua (AVEFA); assay: Glasshouse adjuvancy test for pinoxaden on AVEFA; assay type: in vivo; conditions: pinoxaden 15 g ai/ha, total surfactant 0.2% w/v, 21 days
Experimental: The efficacy of 1:1 blends of oleyl 20EO with oleyl 20EO with either n-hexanoyl, n-octanoyl or 2-ethyl hexanoyl ester caps as adjuvants for the herbicide pinoxaden was tested in a glasshouse against two weed species, sown into standard soil in pots and cultivated under controlled conditions in a glasshouse (20/16° C. day/night; 16 hours light; 65% humidity). Pinoxaden was added to the spray tank as a standard EC (emulsifiable concentrate) formulation. The plants were sprayed with pinoxaden at rates of 7.5 or 15 grams of pesticide per hectare using a laboratory track sprayer which delivered the aqueous spray composition at a rate of 200 litres per hectare, using a flat fan nozzle (Teejet 11002VS) at 2 bar. The spray solutions also contained the oleyl 20EO alone or in the 1:1 blends with the capped surfactants. The adjuvants were added to the spray solution at a total surfactant rate of 0.2% w/v. All spray solutions also contained 10% w/w of iso-propanol. The weed species and their BBCH growth stage at spraying were Avena fatua (AVEFA; growth stage 13) and Setaria viridis (SETVI; growth stage 13). Each spray test was replicated three times. The test plants were then grown in a glasshouse under controlled conditions (20/16° C. day/night; 16 hours light; 65% humidity) and watered twice a day. The efficacy of the herbicide was assessed visually and expressed as a percentage of the leaf area killed. Samples were assessed at a time period of 21 days following application.
Dodecyl 23EO and hexadecyl 20EO were capped with an n-hexyl ether cap. The efficacy of 1:1 blends of these with their uncapped counterparts were tested as adjuvants for the herbicide pinoxaden was tested in a glasshouse against two weed species, sown into standard soil in pots and cultivated under controlled conditions in a glasshouse (20/16° C. day/night; 16 hours light; 65% humidity). Pinoxaden was added to the spray tank as a standard EC (emulsifiable concentrate) formulation. The plants were sprayed with pinoxaden at a.i. rates of 7.5 or 15 grams per hectare using a laboratory track sprayer which delivered the aqueous spray composition at a rate of 200 litres per hectare, using a flat fan nozzle (Teejet 11002VS) at 2 bar. The spray solutions tested included the capped and uncapped alone or in the 1:1 blends with the capped surfactants. The adjuvants were added to the spray solution at a total surfactant rate of 0.2% w/v. All spray solutions also contained 10% w/w of iso-propanol. The weed species and their BBCH growth stage at spraying was Avena fatua (AVEFA; growth stage 12). Each spray test was replicated three times. The test plants were then grown in a glasshouse under controlled conditions (20/16° C. day/night; 16 hours light; 65% humidity) and watered twice a day. The efficacy of the herbicide was assessed visually and expressed as a percentage of the leaf area killed. Samples were assessed at a time period of 21 days following application.
Oleyl 20EO was capped with -butyl, n-pentyl and n-benzyl caps. The efficacy of 1:1 blends of these with their uncapped counterparts were tested as adjuvants for the herbicide pinoxaden was tested in a glasshouse against two weed species, sown into standard soil in pots and cultivated under controlled conditions in a glasshouse (20/16° C. day/night; 16 hours light; 65% humidity). Pinoxaden was added to the spray tank as a standard EC (emulsifiable concentrate) formulation. The plants were sprayed with pinoxaden at a.i. rates of 7.5 or 15 grams per hectare using a laboratory track sprayer which delivered the aqueous spray composition at a rate of 200 litres per hectare, using a flat fan nozzle (Teejet 11002VS) at 2 bar. The spray solutions tested included the capped and uncapped alone or in the 1:1 blends with the capped surfactants. The adjuvants were added to the spray solution at a total surfactant rate of 0.2% w/v. All spray solutions also contained 10% w/w of iso-propanol.

[4] = tested on: Chenopodium album (CHEAL); assay: Glasshouse adjuvancy test for nicosulfuron on CHEAL; assay type: in vivo
Experimental: (§3) The biological efficacies of blends of an oleyl 20 ethoxylate uncapped surfactant with an oleyl 20 ethoxylate surfactant with an n-hexyl ether cap as adjuvants for the herbicide nicosulfuron were tested in a glasshouse against three weed species sown into standard soil in pots and cultivated under controlled conditions in a glasshouse (24/18° C. day/night; 16 hours light; 65% humidity). Nicosulfuron was added to the spray tank as a standard WG (water dispersible granule) formulation. The plants were sprayed with nicosulfuron at rates of 15 or 60 grams of pesticide per hectare using a laboratory track sprayer which delivered the aqueous spray composition at a rate of 200 litres per hectare, using a flat fan nozzle (Teejet 11002VS) at 2 bar. The adjuvants were added to the spray solution at a total rate of 0.1 or 0.2% w/v in all cases and at extra lower rates for the oleyl 20EO alone and its 1:1 blend with the oleyl 20EO n-hexyl ether to show the dose response to these adjuvants. All spray solutions also contained 10% w/w of iso-propanol. The weed species and their BBCH growth stage at spraying were Chenopodium album (CHEAL; growth stage 15), Digitaria sanguinalis (DIGSA; growth stage 14), and Commelina benghalensis (COMBE; growth stage 14). Each spray test was replicated three times. The test plants were then grown in a glasshouse under controlled conditions (24/18° C. day/night; 16 hours light; 65% humidity) and watered twice a day. The efficacy of the herbicide was assessed visually and expressed as a percentage of the leaf area killed. Samples were assessed at a time period of 21 days following application. The following tables (3-8) show the effect of blends of the two surfactants at a total concentration of 0.2 and 0.1%. In each case the blends were 1:0, 3:1, 1:1, 1:3 and 0:1 w/w of oleyl 20EO:oleyl 20 EO n-hexyl ether.
The biological efficacies of blends of oleyl 20 ethoxylate and oleyl 20EO ethoxylate with a benzoate cap as adjuvants for the herbicide nicosulfuron were tested in a glasshouse using the same method as for ‘Example 1’ but against just two weed species and with just 0.2% w/v total adjuvant concentration. The weed species and their BBCH growth stage at spraying HI were Chenopodium album (CHEAL; growth stage 13-15) and Digitaria sanguinalis (DIGSA; growth stage 14-22).
The biological efficacies of 1:1 blends of an oleyl 20 ethoxylate uncapped surfactant with oleyl 20E ethoxylate surfactants with hexanoyl, n-octanoyl or 2-ethyl hexanoyl ester caps as adjuvants for the herbicide nicosulfuron were tested in a glasshouse using the same method as for ‘Example 1’ but against just one weed species and at 0.2% w/v tital adjuvant concentration. The weed species and its BBCH growth stage at spraying was Chenopodium album (CHEAL; growth stage 15).

[5] = tested on: Digitaria sanguinalis (DIGSA); assay: Glasshouse adjuvancy test for nicosulfuron on DIGSA; assay type: in vivo
Experimental: as §3, with “ether. The biological efficacies of blends of oleyl 20 ethoxylate and oleyl 20EO ethoxylate with a benzoate cap as adjuvants for the herbicide nicosulfuron were tested in a glasshouse using the same method as for ‘Example 1’ but against just two weed species and with just 0.2% w/v total adjuvant concentration. The weed species and their BBCH growth stage at spraying HI were Chenopodium album (CHEAL; growth stage 13-15) and Digitaria sanguinalis (DIGSA; growth stage 14-22).” for “ether.”

[6] = dose response, nicosulfuron 15 g ai/ha, adjuvant 0%
[7] = dose response, nicosulfuron 60 g ai/ha, adjuvant 0%

## CCCCCCCC/C=C\CCCCCCCCOCCOCCOCCOCCOCCOCCOCCOCCOCCOCCOCCOCCOCCOCCOCCOCCOCCOCCOCCOCCOC(=O)CCCCC [Oleyl 20EO n-hexanoyl ester, oleyl 20EO n-hexanoyl ester]
[1]; total surfactant concentration 40% w/w, Table 18
  Degelling temperature: 13.6 °C
[2]; 1%, Table 20
  Cloud point: 28.0 °C

## CCCCCCCCCCCCCCCCOCCOCCOCCOCCOCCOCCOCCOCCOCCOCCOCCOCCOCCOCCOCCOCCOCCOCCOCCOCCO [Hexadecyl 20EO, hexadecyl 20 ethoxylate]
[1]; total surfactant concentration 25% w/w, Table 31
  De-gelling temperature: 23.2 °C
[1]; total surfactant concentration 30% w/w, Table 31
  De-gelling temperature: 48.7 °C
[1]; total surfactant concentration 35% w/w, Table 31
  De-gelling temperature: 66.1 °C
[1]; total surfactant concentration 40% w/w, Table 31
  De-gelling temperature: 74.1 °C
[2]; 1% aqueous solutions, Table 30
  Cloud point: >90.0 °C
[3]; Example 7, growth stage 12
  Mean control: 90.3%

## COc1cc(OC)nc(NC(=O)NS(=O)(=O)c2ncccc2C(=O)N(C)C)n1 [nicosulfuron]
[4]; [6]
  Mean control: 4.0%
[4]; [7]
  Mean control: 8.3%
[5]; [6]
  Mean control: 4.0%
[5]; [7]
  Mean control: 33.3%

## CCCCCCCC/C=C\CCCCCCCCOCCOCCOCCOCCOCCOCCOCCOCCOCCOCCOCCOCCOCCOCCOCCOCCOCCOCCOCCOCCOC(=O)c1ccccc1 [Oleyl 20EO benzoate, oleyl 20 ethoxylate benzoate]
[1]; 30% w/w total surfactant concentration, Table 15
  De-gelling temperature: <3.8 °C
[2]; 1%, Table 15
  Cloud point: 27.3 °C
[4]; nicosulfuron 15 g ai/ha, 0.2% w/v total adjuvant, Example 3, growth stage 13-15
  Mean control: 75.0%
[4]; nicosulfuron 60 g ai/ha, 0.2% w/v total adjuvant, Example 3, growth stage 13-15
  Mean control: 81.7%
[5]; nicosulfuron 15 g ai/ha, 0.2% w/v total adjuvant, Example 3, growth stage 14-22
  Mean control: 96.7%
[5]; nicosulfuron 60 g ai/ha, 0.2% w/v total adjuvant, Example 3, growth stage 14-22
  Mean control: 99.3%

## Oleyl 20EO n-butyl ether
[3]; Example 9, growth stage 12
  Mean control: 96.3%

## CCCCCCCC/C=C\CCCCCCCCOCCOCCOCCOCCOCCOCCOCCOCCOCCOCCOCCOCCOCCOCCOCCOCCOCCOCCOCCOCCOC(=O)CCCCCCC [Oleyl 20EO n-octanoyl ester, oleyl 20EO n-octanoyl ester]
[1]; 40% w/w, Table 19
  De-gelling temperature: 16.5 °C
